Entries after “also recorded” stand apart in the source; their conditions may differ.
Experiments:
Type in all cases: in vivo, mouse
[1] = test system: 4-HNE, oxidative stress in the kidneys; experiment: 4-HNE staining of kidney, HF-fed mice; details: HF diet mice; vs high fat diet group
From the text: (§1) Mice, diet, and drug treatment. WT male C57/BL6 male mice were maintained on either a standard laboratory chow-fed diet (CFD) with 13% kcal fat, (diet #5053, Lab Diet, Inc, St. Louis, Mo.) or a high fat, western style diet (HFD) with 60% kcals from fat, (diet #58126, Lab Diet, Inc., St. Louis, Mo.) for 4 months. One month after the start of the high fat diet treatment, the high fat diet group was further split into 2 groups for 3 months: i) high fat diet and the drinking water containing 1% DMSO; ii) high fat diet and the drinking water containing 1.5 mg/100 ml AC261066, a specific RARβ agonist. Then mice were sacrificed by cervical dislocation. Blood and various tissue samples were harvested.
4-hydroxynonenal (4-HNE) staining. Paraffin-embedded sections (from two to four mice per group) were deparaffinized and rehydrated, and antigen retrieval was performed using an antigen unmasking solution (Vector Laboratories, H-3300). After quenching endogenous peroxidase with 3% H2O2, the tissue sections were blocked with the blocking reagent (from the M.O.M. kit from Vector Laboratories). Then, tissue sections were incubated with a 4-HNE antibody (1:400; mouse monoclonal antibody; Abcam, ab48506) overnight at 4° C. The sections were then incubated with secondary antibodies (1:200, anti-mouse IgG from the M.O.M kit). […]

α-SMA = α-SMA immunofluorescence of kidney, HF-fed mice; details: HF diet mice 4 months
From the text: as §1
Combined oil red O and Immunofluorescence staining. Fresh mouse kidney samples were embedded in optimal cutting temperature (OCT) medium and immediately frozen to −70 centigrade. Cryosections were then fixed in 4% formaldehyde for 1 hr at room temp. Slides were then rinsed three times in deionized water (dH2O) for 30 s, followed by treatment with 0.5% Triton X-100 in PBS for 5 min. Sections were then washed three times with PBS for 5 min. Samples were with incubated 2% bovine serum albumin (BSA) for 30 min at room temperature to block for unspecific antibody binding. […]

RARβ2 mRNA = experiment: Semi-quantitative PCR of pancreas, LRAT −/− vitamin A deficient mice; details: treated 8 weeks
Protocol: FIG. 10. Gene expression of RARβ2 in pancreatic tissue from LRAT −/− vitamin A sufficient mice (VAS, normal control diet), LRAT −/− vitamin A deficient (VAD) mice, and LRAT −/− vitamin A deficient (VAD) mice treated with AC261066 for 8 weeks.
(§2) Semi-Quantitate PCR. Total RNA was extracted from mouse tissues using TRIzol reagent (Life technologies) and (1 μg) was used to synthesize cDNA. cDNA synthesis was performed at 42° C. for 1 h in a final volume of 20 μl using qScript (Quanta, MD). Semi-quantitative PCR were performed Taq DNA polymerase (Invitrogen, CA). Three step PCR was run as follows: 94° C. for 30 s, 58-64° C. for 45 s for primer annealing and 72° C. for 1 min for primer extension. The number of cycles for each primer pair for amplification in the linear range was determined experimentally. PCR products were resolved on 2% agarose gels and visualized by staining with ehtidium bromide. Primers for gene expression used were as follows: […]

TNF-α, RARβ2, LRAT mRNA = experiment: Semi-quantitative PCR of kidney, HF-fed mice; details: HF diet mice 4 months
From the text: as §1
as §2, with “Semi-Quantitative” for “Semi-Quantitate”

[2] = test system: renal stellate cells (RSCs); experiment: Double immunofluorescence (vimentin, α-SMA) of renal stellate cells in Db/Db mice; details: Db/Db mice treated for 4 weeks
From the text: Retinoic Acid Receptor β (RARβ) Agonists Diminish The Activation of Fibrogenic Kidney Stellate Cells. Given that we observed a significant decrease in mRNA transcripts of α-SMA we measured kidney protein expression of α-SMA in fibrogenic renal stellate cells Renal stellate cells (RSCs) are resident kidney fibroblasts, which in response to inflammation undergo differentiation to “activated” myofibroblasts that secrete contractile proteins such as α-SMA. […] RSCs express the mesenchymal protein marker vimentin. We used double immunofluorescence to label RSCs and determine the percentage of activated RSCs expressing the fibrogenic protein α-SMA. Using Db/Db mice, which spontaneously diabetes and DN in a similar manner to humans, we detected more than a 4-fold increase in activated α-SMA positive RSCs compared to wt con mice (FIG. 33F, G). Db/Db mice treated with AC261066 for 4 weeks had more than a 50% reduction in α-SMA positive RSCs (FIG. 33F, G).
METHODS. Immunofluorescence and Immunostaining Microscopy-Paraffin embedded pancreatic tissue sections were incubated with antibodies against: insulin (mouse monoclonal 1:300, #1061, Beta Cell Biology Consortium), vimentin (rabbit polyclonal 1:500, Santa Cruz), or α-SMA (mouse monoclonal, 1:1000, Dako, Inc).

Ob/Ob and Db/Db mice = experiment: Metabolic studies (body weight, GTT, insulin secretion, ITT) in Ob/Ob and Db/Db mice, 8 weeks

In the case of `CCCCOCCOc1nc(-c2ccc(C(=O)O)c(F)c2)sc1C` [AC261066], the “4-HNE level (oxidative stress, ROS) in kidneys” value [1] is reported as “reduces oxidative stress; also recorded: lower”, the “α-SMA positive areas in kidney” value (α-SMA) is reported as “diminished; also recorded: not observed” and the “pancreatic RARβ2 mRNA level” value (RARβ2 mRNA) is reported as “increased”. For the same compound, the “kidney LRAT mRNA level” value (TNF-α, RARβ2, LRAT mRNA) was “restores”, the “kidney RARβ2 mRNA level” value (TNF-α, RARβ2, LRAT mRNA) was “restores; also recorded: did not have decreased” and the “kidney TNF-α mRNA level” value (TNF-α, RARβ2, LRAT mRNA) was “reduces”. The “reduction in α-SMA positive RSCs” value [2] was greater than 50%, the pancreatic insulin secretion (Ob/Ob and Db/Db mice; Ob/Ob mice) was “decreased” and the body weights (Ob/Ob and Db/Db mice; genetically obese and diabetic Ob/Ob and Db/Db mice) was “significant reductions”.

— US20220304945A1, “METHODS OF TREATING METABOLIC SYNDROME RELATED CONDITIONS USING RETINOIC ACID RECEPTOR AGONISTS” (Cornell University, priority 2014, published 2022)
